From US10842758B1, “Transdermal penetrant formulations containing cannabidiol” (AMPERSAND BIOPHARMACEUTICALS, INC., priority 2019, dated 2020) come the findings set out here.

The series can be described thus: Plasma pharmacokinetic profile of cannabidiol after a single topical dose (In-life Study 1901002-01, LC-MS/MS). It counts as in vivo, CD-1 mice. To be noted: CD-1, topical or ocular, single topical dose 0.1 mL, mouse plasma. As for the experimental part:
The objective of this study was to determine the plasma pharmacokinetic (PK) profile of test article cannabidiol (CBD) following the administration of a single topical dose to CD-1 mice. The work was conducted at Alliance Pharma with a title of In-life Study 1901002-01. Although the in-life study was not intended to be conducted in compliance with Good Laboratory Practice regulations, the study was conducted in accordance with Alliance Pharma's IACUC (Institutional Animal Care and Use Committee) Protocol No. 2016-02_V4 and Alliance Pharma's standard operating procedures (SOPs). In addition, the pharmacokinetic analyses of mouse plasma samples were conducted in accordance with Alliance Pharma SOPs.
A total of 72 mouse (CD-1) plasma samples were transferred from Alliance Pharma's in-life facility located in Malvern, Pa. to the Bioanalytical department for pharmacokinetic analysis. The concentration of CBD in these 72 plasma samples was measured using high-performance liquid chromatography (HPLC) with tandem mass spectrometry (MS/MS) detection.
Test Article: The dose gels for test article CBD were provided by Ampersand Biopharma dba Dyve Biosciences (Thousand Oakes, Calif.), prior to the start of this study and stored at room temperature.
In-life Study Design: In-life Study 1901002-01 was performed at the in-life testing facility at Alliance Pharma. Four (4) groups of 21 CD-1 mice each (84 total) were administered a single topical dose of CBD. Mice in Group 1 were administered Formulation A at a strength of 2.5% CBD. Mice in Group 2 were administered Formulation B at the same strength of 2.5% CBD. Mice in Group 3 were administered Formulation C at a strength of 5% CBD, and mice in Group 4 were administered Formulation C at a strength of 2.5% CBD. The treatment scheme is summarized below.
Animals in each group received topical administration of either 2.5% o 5% CBD using a 1 ml syringe to draw up exactly 100 μl. Compound was applied in the shaved area only. Each group received a different formulation of the compound.
Sample Collection, Processing, and Shipment: Blood samples were collected at the in-life facility at the following time points: 0.25, 0.5, 1, 2, 4, and 8 hours post-dose from 72 mice in Groups 1 through 4 (18 from each treatment group). Target volume was less than or equal to 0.2 ml. The blood was collected via trunk puncture into tubes using K2 EDTA as an anticoagulant. The collected blood samples were kept on wet ice before being centrifuged. Blood samples were centrifuged as soon as possible after blood collection at approximately 10,000 rpm for about 10 minutes to separate the plasma. Approximately 0.2 mL of each plasma sample was transferred into labeled Eppendorf tubes. Each tube was stored in a freezer set to −20° C. or lower. No blood was collected from 12 (3 from each treatment group) of the 84 mice enrolled in the in-life study; thus, the total number of plasma samples that were transferred to the Alliance Pharma Bioanalytical department for bioanalysis was 72.
Assay Procedures: For analysis of CBD, a 25-μL aliquot of each study sample was mixed with 25 μL of acetonitrile/water (50:50, v/v). Samples were then extracted by protein precipitation using acetonitrile containing the internal standard, tolbutamide (25 ng/mL). A portion of the supernatant was diluted in deionized water and used for the analysis of CBD.
Preparation of Standards and Quality Controls: Calibration standards of CBD mouse plasma samples were prepared in acetonitrile/water (50:50, v/v) at concentrations of 1, 2, 20, 200, 500, 1000, 1800, and 2000 ng/mL. The low quality control (LQC), medium quality control (MQC), and high quality control (HQC) were prepared in blank mouse plasma at concentrations of 3, 150, and 1500 ng/mL, respectively. A dilution quality control (DQC) was prepared at a concentration of 10,000 ng/mL and used in Batch 1.
Sample Analyses: Study samples were analyzed using a bioanalytical method qualified by Alliance Pharma. […]

Setting [1] is: Group 1: AEM.CBD.006 Formulation A 2.5% CBD, mean dose 78.69 mg/kg.
The mark [2] stands for this setting: Group 2: AEM.CBD.007 Formulation B 2.5% CBD, mean dose 76.61 mg/kg.
[3] abbreviates: Group 3: KBM.CBD.010 Formulation C 5% CBD, mean dose 155.24 mg/kg.
The mark [4] stands for this setting: Group 4: KBM.CBD.011 Formulation C 2.5% CBD, mean dose 75.76 mg/kg.

On to `C=C(C)[C@@H]1CCC(C)=C[C@H]1c1c(O)cc(CCCCC)cc1O` [Cannabidiol], for which, under setting [1], the AUC(0-inf) was 1860 ng·h/mL, the AUC(0-t) amounted to 1760 ng·h/mL, the highest level (Cmax) was 427 ng/mL and the Tmax is 2 h. Further, the half-life under setting [1] is 1.78 h. Under setting [2], the AUC(0-inf) came out at 1650 ng·h/mL, the AUC(0-t) amounted to 1560 ng·h/mL, the Cmax was 360 ng/mL and the Tmax came to 2 h. The half-life under setting [2] was 1.7 h. Further, under setting [3], the AUC(0-inf) was determined as 3530 ng·h/mL, the AUC(0-t) worked out at 3070 ng·h/mL, the concentration peaked (Cmax) at 602 ng/mL and the Tmax worked out at 4 h. Moreover, under setting [4], the AUC(0-inf) is 1510 ng·h/mL, the AUC(0-t) worked out at 1410 ng·h/mL, the peak level (Cmax) was 332 ng/mL and the Tmax is 1 h. The compound further showed a half-life under setting [4] of 1.92 h.

For orientation: AUC(0-inf) means total exposure, with the tail of the curve extrapolated. High values mean more exposure, low ones less exposure. The AUC(0-t) is exposure summed from dosing to a finite time, without extrapolation to infinity. Broadly, the Cmax is the maximum level reached in the sampled fluid or tissue. In general, Tmax refers to the time from dosing to the highest level. A word on the half-life: it is the time in which the quantity being followed falls by half. A lower half-life goes with rapid decline.
